# From EP4458352A1, “EICOSAPENTAENOIC ACID ESTER DERIVATIVES FOR THE TREATMENT OF OBESITY” (Technische Universität Dresden, priority 2023, dated 2024)
# Experiments:
# [1] = system: StAR, Cyp11a1, 3β-Hsd2, Cyp11b1, Cyp11b2; assay: mRNA expression of StAR and steroidogenic enzymes upon FADS2 inhibition (qPCR); type: cell-based; conditions: upon FADS2 inhibition (SC-26196)
# Procedure: Adrenal glands or adrenal corteces were isolated from WT C57BL/6J mice, cleaned from the surrounding fat tissue and incubated in collagenase buffer (1.6 mg/ml collagenase type I, 1.6 mg/ml BSA) for 45 min at 37 °C, while shaking at 900 rpm. Dissociated cells were passed through 22 G needle and a 100 µm cell strainer and centrifuged at 300 × g for 5 min at 4 °C. Cells of a pool from two adrenals of each mouse were distributed in four 0.2 % gelatin-precoated wells of a 96-well plate in DMEM/F12 supplemented with 1 % FBS, 50 U/mL penicillin and 50 µg/mL streptomycin. Two hours after seeding 10 µM SC-26196 (Tocris, Wiesbaden-Nordenstadt, Germany) or same amount of carrier (DMSO) were added without changing the medium. In some experiments medium was additionally supplemented with 150 µM ARA (Sigma Aldrich, Germany) or same amount of solvent (endotoxin-free water). […]
# RNA was isolated from frozen tissues with the TRI Reagent (MRC, Cincinnati, USA) after mechanical tissue disruption or from cells with the RNeasy Mini Kit (Qiagen, Düsseldorf, Germany) according to manufacturer's instructions. […] Reverse transcription was performed with the iScript cDNA Synthesis kit (Biorad, Munich, Germany) and cDNA was analyzed by qPCR using the SsoFast Eva Green Supermix (Bio-Rad, Munich, Germany), a CFX384 real-time System C1000 Thermal Cycler (Bio-Rad) and the Bio-Rad CFX Manager 3.1 software.
# NCI-H295R cells = assay: Cholesterol and cholesteryl ester content (LC-MS/MS) of mitochondrial and lipid droplet fractions of NCI-H295R cells treated with SC-26196; type: cell-based, Human
# Procedure: NCI-H295R cells (obtained from ATCC Cat# CRL-2128) were maintained in DMEM/F12 medium supplemented with 2.5 % Nu-Serum type I (Corning), 1 % Insulin Transferrin Selenium (ITS; Gibco), 50 U/mL penicillin and 50 µg/mL streptomycin. They were treated for 18 h with 10 µM SC-26196 or DMSO. […]
# Cells were trypsinized and pelleted by centrifugation (500xg, 5 min, 4 °C). The cells were gently resuspended in homogenization buffer (200 mM mannitol, 50 mM sucrose, 10 mM KCI, […] 25 mM HEPES, pH 7.4, 1 µM aprotinin, 10 µM leupeptin, 20 µM PMSF) and homogenized on ice with 20 strokes of tight Dounce homogenizer. The samples were then centrifuged (800xg, 10 min, 4 °C) to pellet the nuclei. […]
# Fractions 10-12 (SDHB-positive) and 4-5 (HSL-positive) were considered as mitochondrial and lipid droplet fractions, respectively. Protein concentration was measured in the mitochondrial and lipid droplet pools with the BCA Protein Assay Kit (Thermo Fisher) and fractions were analyzed for cholesterol and CE concentrations.
# For quantification of cholesterol and cholesteryl esters, equal volumes of mitochondria fractions (180 µL) were combined, cholesterol-2,3,4-^13C (5 nmol, […]) and SPLASH®Lipidomix® (3 µL, Avanti Polar Lipids Inc) spiked, and samples incubated for 15 min on ice. […]
structure (smiles),measurement,setting,value
N#CC(CCCN1CCN(/N=C/c2cccnc2)CC1)(c1ccccc1)c1ccccc1 [SC-26196],"mRNA expression of StAR or steroidogenic enzymes (Cyp11a1, 3β-Hsd2, Cyp11b1, Cyp11b2)",[1],increased
same,mitochondrial cholesterol levels upon forskolin stimulation,"NCI-H295R cells; SC-26196 18 h vs DMSO, forskolin (FSK, 1 µM) for 30 min, SDHB positive fractions",strong increase in mitochondrial cholesterol levels in control- but not SC-26196-treated cells
same,cholesterol and CE in the lipid droplet (HSL positive) fractions,NCI-H295R cells; SC-26196-treated cells,accumulated
